From patent US4794114A, “Inhibition of interleukin-1 production by monocytes and/or macrophages” (SmithKline Beckman Corporation, priority 1987, dated 1988)
Like-named read-outs stand apart in the source and are kept apart here.

Assays:
[1] = system: IL-1 production by human monocytes; test: in vitro IL-1 production by LPS-stimulated human peripheral blood monocytes (EL-4 readout); format: cell-based; details: for IC50: 1 ng/ml LPS, 1 hr pretreatment
Method: The effects of antiinflammatory/antiarthritic drugs of different classes, including Compound 1 on the in vitro production of IL-1 by human monocytes was examined.
(§1) Bacterial lipopolysaccharide (LPS) was used to induce IL-1 production by human peripheral blood monocytes. IL-1 activity was measured by its ability to stimulate a Interleukin 2 (IL-2) producing cell line (EL-4) to secrete IL-2, in concert with A23187 ionophore, according to the method of Simon et al., J. Immunol. Methods, 84, 85, (1985). Human peripheral blood monocytes were isolated and purified from either fresh blood preparations from volunteer donors, or from blood Bank buffy coats, according to the procedure of Colotta et al., J. Immunol., 132, 936 (1984). 1×10^6 of such monocytes are plated in 24-well plates at a concentration of 2 million/ml per well. The cells were allowed to adhere for 2 hours, after which time non-adherent cells were removed by gentle washing. Test compounds were then added to the cells for 1 hour (hr) before the addition of lipopolysaccharide (10 ng/ml unless otherwise noted), and the cultures were incubated at 37° C. for an additional 24 hours. At the end of the incubation period, culture supernatants were removed and clarified of cells and all debris. Culture supernatants were immediately assayed for IL-1 biological activity as well as prostaglandin and/or leukotriene concentrations by radioimmunoassay.
^(a) All compounds, except chloroquine, were dissolved in absolute
ethanol at 10^-2 M, which was subsequently diluted further in tissue
assay system at doses tested. Furthermore, test samples were dialyzed
prior to testing in the IL1 assay.
In order to elucidate the mechanism by which Compound 1 mediates its anti-inflammatory activity, the ability of this compound and two closely related analog metabolites, (i.e., the analogs of Compound 1 wherein X is S(0)n and n is 1 or 2) to inhibit human IL-1 production in vitro was evaluated according to the method of Example 1. Briefly, 1×10^6 human peripheral blood monocytes were plated in 24-well plates and allowed to adhere for 1 hr at 37° C. The above compounds were added to a final concentration of 10^-5 M to 10^-8 M. The monocytes were stimulated to produce IL-1 with 1 ng/ml LPS after a 1 hr pretreatment of the cells with the respective compounds.
The inhibitory effect of additional compounds of Formula (I) on the in vitro production of IL-1 production of IL-1 by human monocytes was determined according to the procedure of Examples 1 and 2.

[2] = system: IL-1 production by human monocytes; details: Lipsky, Amer. J. Med. 75, Supp. 1A, 19 (1983); cited from earlier work
PGE2 = test: in vitro prostaglandin (PGE2) synthesis by LPS-stimulated human monocytes, RIA; format: cell-based; details: Homo sapiens, Monocyte, read-out: % Inhibition PGE2
Method: as §1
^(c) PGE2 was assayed using an RIA kit.

[3] = system: endotoxin shock in C57B1/6 mice; format: in vivo, mouse; details: mouse, in vivo
Method: (§2) Mice are very resistant to the lethal effects of bacterial lipopolysaccharides (LPS). D-Galactosamine (D-GALN) induces a high degree of sensitization to the lethal effects of LPS in mice and other experimental animals. [See, Galanos et al., Proc. Natl. Acad Sci. USA., 76, 5939 (1979)]. In mice, depending on the strain and age, the sensitivity to endotoxin can be increased many thousand-fold.
A number of preliminary experiments were carried out to establish this model of lethal endotoxin shock.

C57B1/6 mice = test: lethality of LPS in D-galactosamine treated C57B1/6 mice; format: in vivo, mouse; details: for Lethality, No. of Death/Total No.: D-Galactosamine 500 mg/kg i.v.
Method: as §2
A number of preliminary experiments were carried out to establish this model of lethal endotoxin shock. LPS concentrations of up to 1 mg/mouse are not lethal in C57B1/6 mice. When injected i.v. with D-GALN (500 mg/kg), however, the sensitivity increases so that 0.1 ug becomes a lethal dose (Table 5). The concentration of D-GALN required to obtain this effect is 400-500 mg/kg.
All compounds were administered i.v.

[4] = system: adjuvant-induced arthritis in the rat; test: adjuvant-induced arthritis in the rat: right leg paw edema; format: in vivo; details: mg/kg: Compound 1 60, indomethacin 2.0, prednisolone 10, methotrexate 0.3, D-penicillamine 50
Method: (§3) Adjuvant-induced arthritis in the rat is a model of systemic inflammation with characteristics similar to rheumatoid arthritis in man. […] This model was employed to assess the effect of Compound 1 in vivo on this elevated IL-1 production. Briefly, rats were injected on day 0 with Freund's complete adjuvant in the right hind leg. Drugs were prepared as a suspension in tragacanth and administered daily per os either prophylactically (days 1 to 16) or therapeutically in a short-term modality (days 14 to 16). In all cases, final administration of drug occurred at 3 hours prior to sacrifice. Spleens were removed from these rats and the adherent cells were assessed for their ability to produce IL-1 in vitro in response to stimulation by LPS.
(§4) PROPHYLACTIC TREATMENT: Drugs were administered daily p.o. as a suspensio
(§5) in tragacanth from day 1 to day 16. Final dose given 3 hrs before
(§6) TREATMENT: Drugs were administered daily p.o. as above from
(§7) day 14 to day 16. Final dose given 3 hrs before sacrifice.
(§8) ***P < 0.01 Indomethacin 2.0 mg/kg
(§9) **P < 0.05 Compound 1 60 mg/kg
(§10) *P < 0.10 Prednisolone 10 mg/kg
(§11) D-Penicillamine 50 mg/kg

[5] = system: IL-1 production by splenic adherent cells; test: adjuvant-induced arthritis in the rat: IL-1 production by LPS-stimulated splenic adherent cells; format: in vivo; details: for IL-1 Production (splenic adherent cells), % normal control: mg/kg: Compound 1 60, indomethacin 2.0, prednisolone 10, methotrexate 0.3, D-penicillamine 50
Method: as §3, §4, §5, §6, §7, §8, §9, §10, §11

splenic adherent cells = test: adjuvant-induced arthritis in the rat: % splenic adherent cells; format: in vivo; details: mg/kg: Compound 1 60, indomethacin 2.0, prednisolone 10, methotrexate 0.3, D-penicillamine 50
Method: as §3, §4, §5, §6, §7, §8, §9, §10, §11

[6] = Homo sapiens, Monocyte, read-out: % Inhibition IL-1
[7] = Homo sapiens, Monocyte, 10^-6 M, Table 3, read-out: % Inhibition @ 10^-6 M
[8] = prophylactic, daily p.o. days 1-16
[9] = therapeutic, daily p.o. days 14-16

With CCN(CC)CCCC(C)Nc1ccnc2cc(Cl)ccc12 (stereo not shown) [Chloroquine] the inhibition at 0.1 µM [1, 6] was 36%, the inhibition at 1 µM [1, 6] was 46% and the inhibition at 10 µM [1, 6] was 89%. The “inhibition of IL-1 production” value ([1]; doses one or two logs higher than Compound 1) was “only marginally active”, the “inhibition of IL-1 production, literature” value [2] was “inhibit IL-1 production” and the inhibition at 0.1 µM (PGE2) was 0%. For the same compound, the inhibition at 1 µM (PGE2) was 0% and the inhibition at 10 µM (PGE2) was 84%.
[O-][S+]1CCn2c1nc(-c1ccc(F)cc1)c2-c1ccncc1 (stereo not shown) [Compound 2] showed an IC50 ([1]; Homo sapiens, Monocyte) of 800 nM and an inhibition at 1 µM [1, 7] of 56%.
O=S1(=O)CCn2c1nc(-c1ccc(F)cc1)c2-c1ccncc1 [Compound 3] gave an IC50 ([1]; Homo sapiens, Monocyte) of 610 nM and an inhibition at 1 µM [1, 7] of 54%.
Compound Fc1ccc(-c2c(-c3ccncc3)nc3n2CCS3)cc1 [Compound 4] has an inhibition at 1 µM [1, 7] of 46%.
For Fc1ccc(-c2nc3n(c2-c2ccncc2)CCC3)cc1 [Compound 5], the “protection from lethal effects of LPS/GALN” value [3] was “protective effects” and the inhibition at 1 µM [1, 7] was 78%.
COc1ccc(-c2nc3n(c2-c2ccncc2)CCS3)cc1 [Compound 6] gave an inhibition at 1 µM [1, 7] of 64%.
COc1ccc(-c2nc3n(c2-c2ccncc2)CCC3)cc1 [Compound 7] showed an inhibition at 1 µM [1, 7] of 40%.
Work on COc1ccc(-c2nc3n(c2-c2ccncc2)CCCC3)cc1 [Compound 8] yielded an inhibition at 1 µM [1, 7] of 30%.
For N[C@H]1C(O)O[C@H](CO)[C@H](O)[C@@H]1O (stereo partly drawn) [D-Galactosamine], the “Lethality, No. of Death/Total No.” value (C57B1/6 mice; 6 Hr.) was 0/10, the “Lethality, No. of Death/Total No.” value (C57B1/6 mice; 24 Hr.) was 0/10 and the “D-GALN concentration required to sensitize to LPS” value (C57B1/6 mice; with LPS, i.v.) was 400 to 500 mg/kg.
In the case of CC(C)(S)[C@@H](N)C(=O)O [D-PENICILLAMINE, d-penicillamine], the “Right leg paw edema, % normal control” value [4, 8] is reported as 184 ± 20 % normal control, the “Right leg paw edema, % normal control” value [4, 9] is reported as 191 ± 13 % normal control and the “IL-1 Production (splenic adherent cells), % normal control” value [5, 8] is reported as 336 ± 170 % normal control. The “IL-1 Production (splenic adherent cells), % normal control” value [5, 9] was 374 % normal control, the “effect in adjuvant arthritic rats” value ([5]; therapeutic, short-term treatment) was “no effect” and the “% Adherent Cells (splenic), % normal control” value (splenic adherent cells; [8]) was 372 ± 117 % normal control. For the same compound, the “% Adherent Cells (splenic), % normal control” value (splenic adherent cells; [9]) was 217 ± 6 % normal control.
